# Data: article PMC12454493, “Insight on novel sulfamoylphenyl pyrazole derivatives as anticancer carbonic anhydrase inhibitors” (Molecular Diversity, 2024)
# Values joined by “and” are separate entries in the source; they are usually repeats but may differ in a detail not shown here. Equal values may be shown once.
# Key:
# SR = experiment: NCI-60 one-dose SRB screen (Leukemia); type: cell-based; conditions: Homo sapiens, single dose 10 µM, 48 h, read-out: Growth inhibition percent (GI %)
# COLO 205 = experiment: NCI-60 one-dose SRB screen (Colon Cancer); type: cell-based; conditions: Homo sapiens, single dose 10 µM, 48 h, read-out: Growth inhibition percent (GI %)
# Procedure: (§1) The National Cancer Institute (NCI) Developmental Therapeutic Program (www.dtp.nci.nih.gov) selected the 20 novel synthesized compounds 4a-e, 5a-e, 6a-c, 9a-e, 10 and 11 to test for their anticancer activity at a single dose of 10 µM using SRB assay. […] Supplementary Data S3; Table S1 presents the detailed screening results of the most promising compounds. The preliminary screening’s detailed results for the remaining compounds are elucidated in the (Supplementary Data S3; Table S2).
# (§2) The guidelines of the Drug Evaluation Branch’s protocol at the NCI in Bethesda served as the basis for the in vitro anticancer screening assays. at one dose 10 µM against a panel of 60 cancer cell lines. The human tumor cell lines used belonged to nine panels: leukemia, melanoma, lung, colon, CNS, ovarian, renal, prostate and breast cancers using the sulforhodamine B (SRB) assay in a 48 h drug exposure protocol.
# HCC-2998 = experiment: NCI-60 one-dose SRB screen (Colon Cancer); type: cell-based; conditions: Homo sapiens, single dose 10 µM, 48 h, read-out: Growth inhibition percent (GI %)
# Procedure: as §1, §2
# HCT-116 = experiment: NCI-60 one-dose SRB screen (Colon Cancer); type: cell-based; conditions: Homo sapiens, single dose 10 µM, 48 h, read-out: Growth inhibition percent (GI %)
# Procedure: as §1, §2
# HCT-15 = experiment: NCI-60 one-dose SRB screen (Colon Cancer); type: cell-based; conditions: Homo sapiens, single dose 10 µM, 48 h, read-out: Growth inhibition percent (GI %)
# Procedure: as §1, §2
# HT29 = experiment: NCI-60 one-dose SRB screen (Colon Cancer); type: cell-based; conditions: Homo sapiens, HT-29, single dose 10 µM, 48 h, read-out: Growth inhibition percent (GI %)
# Procedure: as §1, §2
# KM12 = experiment: NCI-60 one-dose SRB screen (Colon Cancer); type: cell-based; conditions: Homo sapiens, single dose 10 µM, 48 h, read-out: Growth inhibition percent (GI %)
# Procedure: as §1, §2
# SW-620 = experiment: NCI-60 one-dose SRB screen (Colon Cancer); type: cell-based; conditions: Homo sapiens, single dose 10 µM, 48 h, read-out: Growth inhibition percent (GI %)
# Procedure: as §1, §2
# 786-0 = experiment: NCI-60 one-dose SRB screen (Renal Cancer); type: cell-based; conditions: Homo sapiens, single dose 10 µM, 48 h, read-out: Growth inhibition percent (GI %)
# Procedure: as §1, §2
# A498 = experiment: NCI-60 one-dose SRB screen (Renal Cancer); type: cell-based; conditions: Homo sapiens, single dose 10 µM, 48 h, read-out: Growth inhibition percent (GI %)
# Procedure: as §1, §2
# ACHN = experiment: NCI-60 one-dose SRB screen (Renal Cancer); type: cell-based; conditions: Homo sapiens, single dose 10 µM, 48 h, read-out: Growth inhibition percent (GI %)
# Procedure: as §1, §2
# CAKI-1 = experiment: NCI-60 one-dose SRB screen (Renal Cancer); type: cell-based; conditions: Homo sapiens, single dose 10 µM, 48 h, read-out: Growth inhibition percent (GI %)
# Procedure: as §1, §2
# RXF 393 = experiment: NCI-60 one-dose SRB screen (Renal Cancer); type: cell-based; conditions: Homo sapiens, single dose 10 µM, 48 h, read-out: Growth inhibition percent (GI %)
# Procedure: as §1, §2
# SN12C = experiment: NCI-60 one-dose SRB screen (Renal Cancer); type: cell-based; conditions: Homo sapiens, single dose 10 µM, 48 h, read-out: Growth inhibition percent (GI %)
# Procedure: as §1, §2
# TK-10 = experiment: NCI-60 one-dose SRB screen (Renal Cancer); type: cell-based; conditions: Homo sapiens, single dose 10 µM, 48 h, read-out: Growth inhibition percent (GI %)
# Procedure: as §1, §2
# UO-31 = experiment: NCI-60 one-dose SRB screen (Renal Cancer); type: cell-based; conditions: Homo sapiens, single dose 10 µM, 48 h, read-out: Growth inhibition percent (GI %)
# Procedure: as §1, §2
# hCA XII = hCA XII (Homo sapiens, UniProt O43570); experiment: CA inhibitory activity, spectrophotometric p-NPA assay; type: biochemical; conditions: for IC50: p-NPA substrate, pH 7.5, 25 °C, triplicate, read-out: IC50 (µM) ± SD hCA XII
# Chain of hCA XII (O43570 25-354): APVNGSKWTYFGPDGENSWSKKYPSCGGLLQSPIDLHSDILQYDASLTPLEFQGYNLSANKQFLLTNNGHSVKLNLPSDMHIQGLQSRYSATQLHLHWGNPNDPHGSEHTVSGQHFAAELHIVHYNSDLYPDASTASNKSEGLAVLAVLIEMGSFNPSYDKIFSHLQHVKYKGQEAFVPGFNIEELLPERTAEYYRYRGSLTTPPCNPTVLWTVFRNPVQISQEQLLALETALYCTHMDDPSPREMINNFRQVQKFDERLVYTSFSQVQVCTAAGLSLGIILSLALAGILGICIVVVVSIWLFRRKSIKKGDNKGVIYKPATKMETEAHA
# Procedure: The software used to calculate CA IC50 along with statistical analysis of the results is GraphPad Prism 9.00. Results were estimated by using one-way ANOVA and the Bonferroni’s multiple comparisons posthoc test was performed (P < 0.05) [46]
# Carbonic anhydrase inhibitory activity:
# The spectrophotometric assay was conducted in HEPES-Tris buffer, NaCl of pH 7.5 (20mM) at 25◦C. Each inhibitory well-consisted of 50 μL of assay buffer solution, 20 μL of hCA enzyme solution (20 ng/μL in Assay Buffer), and 50 μL of test compound in HPLC grade DMSO (maintain 10% of the final concentration). The mixture solution was
# Substrate p-nitrophenyl acetate (p-NPA) (0.7mM) was prepared in HPLC grade methanol and the reaction was started by adding 20 μL to a well in a 96-well-plate. The amount of product formed was measured for 30 min continuously at 1 min intervals at 400 nm in a 96-well-plate using xMARK microplate spectrophotometer, Bio-Rad (USA). The activity of the controlled compound was taken as 100%. All experiments were carried out in triplicates of each used concentration, and results are represented as a
SMILES,inhibition at 10 µM (SR) [%],inhibition at 10 µM (COLO 205) [%],inhibition at 10 µM (HCC-2998) [%],inhibition at 10 µM (HCT-116) [%],inhibition at 10 µM (HCT-15) [%],inhibition at 10 µM (HT29) [%],inhibition at 10 µM (KM12) [%],inhibition at 10 µM (SW-620) [%],inhibition at 10 µM (786-0) [%],inhibition at 10 µM (A498) [%],inhibition at 10 µM (ACHN) [%],inhibition at 10 µM (CAKI-1) [%],inhibition at 10 µM (RXF 393) [%],inhibition at 10 µM (SN12C) [%],inhibition at 10 µM (TK-10) [%],inhibition at 10 µM (UO-31) [%],IC50 (hCA XII),Ki (hCA XII) [nM]
"Cc1ccc(-c2nn(-c3ccc(S(N)(=O)=O)cc3)cc2C(=O)OCC(=O)Nc2nnc(S(N)(=O)=O)s2)cc1 [Compound 6b, 2-Oxo-2-[(5-sulfamoyl-1,3,4-thiadiazol-2-yl)amino] ethyl 1-(4-sulfamoylphenyl)-3-(p-tolyl)-1H-pyrazole-4-carboxylate]",15.7,< 5,< 5,< 5,< 5,< 5,< 5,< 5,5.95,7.37,< 5,28,< 5,< 5,< 5,10.8,1.7 ± 0.064 µM,
"CCOC(=O)c1ccc(NC(=O)COC(=O)c2cn(-c3ccc(S(N)(=O)=O)cc3)nc2-c2ccc(S(C)(=O)=O)cc2)cc1 [Compound 5e, 2-[(4-(Ethoxycarbonyl)phenyl)amino]-2-oxoethyl 3-(4-(methylsulfonyl)phenyl)-1-(4-sulfamoylphenyl)-1H-pyrazole-4-carboxylate]",22.1,< 5,< 5,< 5,< 5,< 5,< 5,< 5,13.2,19.7,8.32,30.8,< 5,7.85,< 5,21.9,0.16 µM and 0.167 µM,
"NS(=O)(=O)c1ccc(-n2cc(C(=O)OCC(=O)Nc3nnc(S(N)(=O)=O)s3)c(-c3ccccc3)n2)cc1 [Compound 6a, 2-Oxo-2-[(5-sulfamoyl-1,3,4-thiadiazol-2-yl)amino] ethyl 3-phenyl-1-(4-sulfamoylphenyl)-1H-pyrazole-4-carboxylate]",17,< 5,< 5,< 5,< 5,< 5,< 5,< 5,,< 5,6.63,7.52,< 5,< 5,< 5,12.6,0.35 µM and 0.358 µM,
"Cc1ccc(-c2nn(-c3ccc(S(N)(=O)=O)cc3)cc2-c2n[nH]c(=S)[nH]2)cc1 [Compound 11, 4-[4-(5-Mercapto-1H-1,2,4-triazol-3-yl)-3-(p-tolyl)-1H-pyrazol-1-yl] benzenesulfonamide]",15.8,< 5,< 5,< 5,< 5,,< 5,< 5,,< 5,< 5,11.4,10.1,7.65,< 5,< 5,0.33 µM and 0.332 µM,
"CS(=O)(=O)c1ccc(-c2nn(-c3ccc(S(N)(=O)=O)cc3)cc2C(=O)NNC(N)=S)cc1 [Compound 9e, 2-[3-(4-(Methylsulfonyl)phenyl)-1-(4-sulfamoylphenyl)-1H-pyrazole-4-carbonyl] hydrazine-1-carbothioamide]",< 5,< 5,< 5,< 5,< 5,< 5,< 5,< 5,< 5,< 5,< 5,9.93,< 5,< 5,< 5,5.48,0.929 ± 0.035 µM,
"CCOC(=O)c1ccc(NC(=O)COC(=O)c2cn(-c3ccc(S(N)(=O)=O)cc3)nc2-c2ccc(OC)cc2)cc1 [Compound 5c, 2-[(4-(Ethoxycarbonyl)phenyl)amino]-2-oxoethyl 3-(4-methoxyphenyl)-1-(4-sulfamoylphenyl)-1H-pyrazole-4-carboxylate]",64.6,25.1,< 5,35.2,48.5,17.3,26.2,7.9,53.1,23.2,21.3,55.6,55.3,21.3,23.8,38.5,0.27 µM and 0.272 µM,
"Cc1ccc(-c2nn(-c3ccc(S(N)(=O)=O)cc3)cc2-c2nnc(N)s2)cc1 [Compound 10, 4-[4-(5-Amino-1,3,4-thiadiazol-2-yl)-3-(p-tolyl)-1H-pyrazol-1-yl] benzenesulfonamide]",< 5,< 5,< 5,< 5,< 5,,< 5,< 5,,15.5,< 5,12.1,9.9,< 5,15.4,7.96,1.14 µM and 1.15 µM,
"CS(=O)(=O)c1ccc(-c2nn(-c3ccc(S(N)(=O)=O)cc3)cc2C(=O)OCC(=O)Nc2ccc(S(N)(=O)=O)cc2)cc1 [Compound 4e, 2-Oxo-2-[(4-sulfamoylphenyl)amino] ethyl 3-(4-(methylsulfonyl)phenyl)-1-(4-sulfamoylphenyl)-1H-pyrazole-4-carboxylate]",< 5,< 5,< 5,< 5,< 5,6.67,< 5,< 5,< 5,< 5,< 5,8.93,< 5,,< 5,8.95,0.08 µM and 0.081 µM,81
"COc1ccc(-c2nn(-c3ccc(S(N)(=O)=O)cc3)cc2C(=O)OCC(=O)Nc2nnc(S(N)(=O)=O)s2)cc1 [Compound 6c, 2-Oxo-2-[(5-sulfamoyl-1,3,4-thiadiazol-2-yl)amino] ethyl 3-(4-methoxyphenyl)-1-(4-sulfamoylphenyl)-1H-pyrazole-4-carboxylate]",< 5,< 5,< 5,< 5,< 5,< 5,< 5,< 5,< 5,7.75,< 5,21.5,< 5,< 5,< 5,14.9,0.09 µM and 0.095 µM,95
"NC(=S)NNC(=O)c1cn(-c2ccc(S(N)(=O)=O)cc2)nc1-c1ccccc1 [Compound 9a, 2-[3-Phenyl-1-(4-sulfamoylphenyl)-1H-pyrazole-4-carbonyl] hydrazine-1-carbothioamide]",< 5,< 5,< 5,< 5,< 5,10.8,< 5,< 5,9.98,< 5,< 5,< 5,< 5,,12.3,< 5,0.605 ± 0.023 µM,
